Measured values from patent US7820623B2 (priority 2006, dated 2010).
Where two headings read alike, the source gives them in different places. Bridge positions count the residues as written; N and C are the ends. Square brackets hold non-standard residues; d marks the D form. Peptide text beside a SMILES is read from it. 1Nal = N[C@@H](Cc1cccc2ccccc12)C(=O)O

Experiments:
[1] = system: thapsigargin-induced IFN-g production in human whole blood; assay type: cell-based
[2] = system: thapsigargin-induced IL-2 production in human whole blood
[3] = read-out: Analogue Activity (IC50) WB/IFNg
[4] = read-out: Analogue Activity (IC50) WB/IL-2

Work on `CC[C@H](C)[C@@H]1NC(=O)[C@H](CCCCN)NC(=O)[C@@H](NC(=O)[C@H](CCCCN)NC(=O)[C@@H](NC(=O)[C@H](CC(N)=O)NC(=O)[C@@H](NC(=O)[C@@H](NC(=O)[C@@H](NC(=O)CN)C(C)C)[C@@H](C)CC)[C@@H](C)CC)C(C)C)CSSC[C@@H]2NC(=O)[C@H](CCCCN)NC(=O)CNC(=O)[C@H](Cc3ccccc3)NC(=O)[C@H](CCCNC(=N)N)NC(=O)[C@H](CCSC)NC(=O)CNC(=O)[C@H](C)NC(=O)[C@H](CCCCN)NC(=O)[C@H](CCCCN)NC(=O)[C@@H]3CSSC[C@@H](C(=O)N[C@H](C(=O)N4CCC[C@H]4C(=O)N[C@@H](CCCNC(=N)N)C(=O)O)[C@@H](C)O)NC(=O)[C@H](Cc4c[nH]cn4)NC(=O)[C@H](CSSC[C@H](NC(=O)[C@H](CCC(N)=O)NC(=O)[C@H](CCCNC(=N)N)NC(=O)[C@H](CO)NC1=O)C(=O)N[C@@H](CC(C)C)C(=O)N[C@@H](CCC(=O)O)C(=O)N1CCC[C@H]1C(=O)N3)NC(=O)[C@H](CCCCN)NC(=O)CNC(=O)[C@H](CC(N)=O)NC(=O)[C@H](CCSC)NC2=O` [K38R] (H-GVIINVKCKISRQCLEPCKKAGMRFGKCMNGKCHCTPR-OH; disulfide 8-28, 14-33, 18-35) yielded an IC50 [1, 3] of 0.04 nM and an IC50 [2, 4] of 0.039 nM.

Work on `CC[C@H](C)[C@@H]1NC(=O)[C@H](CCCCN)NC(=O)[C@@H](NC(=O)[C@H](CCCCN)NC(=O)[C@@H](NC(=O)[C@H](CC(N)=O)NC(=O)[C@@H](NC(=O)[C@@H](NC(=O)[C@@H](NC(=O)CN)C(C)C)[C@@H](C)CC)[C@@H](C)CC)C(C)C)CSSC[C@@H]2NC(=O)[C@H](CCCCN)NC(=O)CNC(=O)[C@H](Cc3ccccc3)NC(=O)[C@H](CCCNC(=N)N)NC(=O)[C@H](CCSC)NC(=O)CNC(=O)[C@H](C)NC(=O)[C@H](CCCCN)NC(=O)[C@H](CCCCN)NC(=O)[C@@H]3CSSC[C@@H](C(=O)N[C@H](C(=O)N4CCC[C@H]4C(=O)N[C@@H](CCCCN)C(=O)O)[C@@H](C)O)NC(=O)[C@H](Cc4c[nH]cn4)NC(=O)[C@H](CSSC[C@H](NC(=O)[C@H](CCC(N)=O)NC(=O)[C@H](CCCNC(=N)N)NC(=O)[C@H](CO)NC1=O)C(=O)N[C@@H](CC(C)C)C(=O)N[C@@H](CCC(=O)O)C(=O)N1CCC[C@H]1C(=O)N3)NC(=O)[C@H](CCCCN)NC(=O)CNC(=O)[C@H](CCCNC(=N)N)NC(=O)[C@H](CCSC)NC2=O` [N30R] (H-GVIINVKCKISRQCLEPCKKAGMRFGKCMRGKCHCTPK-OH; disulfide 8-28, 14-33, 18-35) yielded an IC50 [1, 3] of 0.445 nM and an IC50 [2, 4] of 0.405 nM.

Compound `CC[C@H](C)[C@@H]1NC(=O)[C@H](CCCCN)NC(=O)[C@@H](NC(=O)[C@H](CCCCN)NC(=O)[C@@H](NC(=O)[C@H](CCCNC(=N)N)NC(=O)[C@@H](NC(=O)[C@@H](NC(=O)[C@@H](NC(=O)CN)C(C)C)[C@@H](C)CC)[C@@H](C)CC)C(C)C)CSSC[C@@H]2NC(=O)[C@H](CCCCN)NC(=O)CNC(=O)[C@H](Cc3ccccc3)NC(=O)[C@H](CCCNC(=N)N)NC(=O)[C@H](CCSC)NC(=O)CNC(=O)[C@H](C)NC(=O)[C@H](CCCCN)NC(=O)[C@H](CCCCN)NC(=O)[C@@H]3CSSC[C@@H](C(=O)N[C@H](C(=O)N4CCC[C@H]4C(=O)N[C@@H](CCCCN)C(=O)O)[C@@H](C)O)NC(=O)[C@H](Cc4c[nH]cn4)NC(=O)[C@H](CSSC[C@H](NC(=O)[C@H](CCC(N)=O)NC(=O)[C@H](CCCNC(=N)N)NC(=O)[C@H](CO)NC1=O)C(=O)N[C@@H](CC(C)C)C(=O)N[C@@H](CCC(=O)O)C(=O)N1CCC[C@H]1C(=O)N3)NC(=O)[C@H](CCCCN)NC(=O)CNC(=O)[C@H](CC(N)=O)NC(=O)[C@H](CCSC)NC2=O` [N5R] (H-GVIIRVKCKISRQCLEPCKKAGMRFGKCMNGKCHCTPK-OH; disulfide 8-28, 14-33, 18-35) has an IC50 [1, 3] of 0.12 nM and an IC50 [2, 4] of 0.095 nM.

“GVIINVKCKISRQCLEPCKKAGMRFGKCMNGKCACTPK [Ala-34 (SEQ ID No: 1428)]” showed an IC50 ([1]; read-out: Average IC50 IFNg) of 0.0573 nM and an IC50 ([2]; read-out: Average IC50 IL-2) of 0.0725 nM.

“GVIINVKCKISRACLEPCKKAGMRFGKCMNGKCHCTPK [Ala-13 (SEQ ID No: 1411)]” was tested, and the IC50 ([1]; read-out: Average IC50 IFNg) was 0.133 nM and the IC50 ([2]; read-out: Average IC50 IL-2) was 0.148 nM.

`CC[C@H](C)[C@@H]1NC(=O)[C@H](CCCCN)NC(=O)[C@@H](NC(=O)[C@H](CCCCN)NC(=O)[C@@H](NC(=O)[C@H](CC(N)=O)NC(=O)[C@@H](NC(=O)[C@@H](NC(=O)[C@@H](NC(=O)CN)C(C)C)[C@@H](C)CC)[C@@H](C)CC)C(C)C)CSSC[C@@H]2NC(=O)[C@H](CCCCN)NC(=O)CNC(=O)[C@H](Cc3ccccc3)NC(=O)[C@H](CCCNC(=N)N)NC(=O)[C@H](CCSC)NC(=O)CNC(=O)[C@H](C)NC(=O)[C@H](CCCCN)NC(=O)[C@H](CCCCN)NC(=O)[C@@H]3CSSC[C@@H](C(=O)N[C@H](C(=O)N4CCC[C@H]4C(=O)N[C@@H](CCC(=O)O)C(=O)O)[C@@H](C)O)NC(=O)[C@H](Cc4c[nH]cn4)NC(=O)[C@H](CSSC[C@H](NC(=O)[C@H](CCC(N)=O)NC(=O)[C@H](CCCNC(=N)N)NC(=O)[C@H](CO)NC1=O)C(=O)N[C@@H](CC(C)C)C(=O)N[C@@H](CCC(=O)O)C(=O)N1CCC[C@H]1C(=O)N3)NC(=O)[C@H](CCCCN)NC(=O)CNC(=O)[C@H](CC(N)=O)NC(=O)[C@H](CCSC)NC2=O` [K38E] (H-GVIINVKCKISRQCLEPCKKAGMRFGKCMNGKCHCTPE-OH; disulfide 8-28, 14-33, 18-35) was tested, and the IC50 [1, 3] was 0.713 nM and the IC50 [2, 4] was 0.526 nM.

Work on `CC[C@H](C)[C@@H]1NC(=O)[C@H](CCCCN)NC(=O)[C@@H](NC(=O)[C@H](CCCCN)NC(=O)[C@@H](NC(=O)[C@H](CCC(=O)O)NC(=O)[C@@H](NC(=O)[C@@H](NC(=O)[C@@H](NC(=O)CN)C(C)C)[C@@H](C)CC)[C@@H](C)CC)C(C)C)CSSC[C@@H]2NC(=O)[C@H](CCCCN)NC(=O)CNC(=O)[C@H](Cc3ccccc3)NC(=O)[C@H](CCCNC(=N)N)NC(=O)[C@H](CCSC)NC(=O)CNC(=O)[C@H](C)NC(=O)[C@H](CCCCN)NC(=O)[C@H](CCCCN)NC(=O)[C@@H]3CSSC[C@@H](C(=O)N[C@H](C(=O)N4CCC[C@H]4C(=O)N[C@@H](CCCCN)C(=O)O)[C@@H](C)O)NC(=O)[C@H](Cc4c[nH]cn4)NC(=O)[C@H](CSSC[C@H](NC(=O)[C@H](CCC(N)=O)NC(=O)[C@H](CCCNC(=N)N)NC(=O)[C@H](CO)NC1=O)C(=O)N[C@@H](CC(C)C)C(=O)N[C@@H](CCC(=O)O)C(=O)N1CCC[C@H]1C(=O)N3)NC(=O)[C@H](CCCCN)NC(=O)CNC(=O)[C@H](CC(N)=O)NC(=O)[C@H](CCSC)NC2=O` [N5E] (H-GVIIEVKCKISRQCLEPCKKAGMRFGKCMNGKCHCTPK-OH; disulfide 8-28, 14-33, 18-35) yielded an IC50 [1, 3] of 0.065 nM and an IC50 [2, 4] of 0.1 nM.

For `CC[C@H](C)[C@@H]1NC(=O)[C@H](CCCCN)NC(=O)[C@@H](NC(=O)[C@H](CCCCN)NC(=O)[C@@H](NC(=O)[C@H](CC(N)=O)NC(=O)[C@@H](NC(=O)[C@@H](NC(=O)[C@@H](NC(=O)CN)C(C)C)[C@@H](C)CC)[C@@H](C)CC)C(C)C)CSSC[C@@H]2NC(=O)[C@H](CCCCN)NC(=O)CNC(=O)[C@H](Cc3ccccc3)NC(=O)[C@H](CCCNC(=N)N)NC(=O)[C@H](Cc3cccc4ccccc34)NC(=O)CNC(=O)[C@H](C)NC(=O)[C@H](CCCCN)NC(=O)[C@H](CCCCN)NC(=O)[C@@H]3CSSC[C@@H](C(=O)N[C@H](C(=O)N4CCC[C@H]4C(=O)N[C@@H](CCCCN)C(=O)O)[C@@H](C)O)NC(=O)[C@H](Cc4c[nH]cn4)NC(=O)[C@H](CSSC[C@H](NC(=O)[C@H](CCC(N)=O)NC(=O)[C@H](CCCNC(=N)N)NC(=O)[C@H](CO)NC1=O)C(=O)N[C@@H](CC(C)C)C(=O)N[C@@H](CCC(=O)O)C(=O)N1CCC[C@H]1C(=O)N3)NC(=O)[C@H](CCCCN)NC(=O)CNC(=O)[C@H](CC(N)=O)NC(=O)[C@H](CCSC)NC2=O` [M23Nal] (H-GVIINVKCKISRQCLEPCKKAG[1Nal]RFGKCMNGKCHCTPK-OH; disulfide 8-28, 14-33, 18-35), the IC50 [1, 3] was 1.11 nM and the IC50 [2, 4] was 0.581 nM.
